According to the NIST ThermoML archive (doi:10.1016/j.fluid.2013.12.022):

Assay: refractive index (other wavelength) (dimensionless); xn = mol fraction of the nth substance listed
Settings: 85 kPa, Liquid, Wavelength=632.8 nm, minimum deviation angle technique

CCCCCCCC[n+]1ccn(C)c1.F[P-](F)(F)(F)(F)F [1-octyl-3-methylimidazolium hexafluorophosphate] + CC(C)(C)O
Settings	refractive index
312.06 K, x1 = 1	1.4179
314.47 K, x1 = 1	1.4173
316.92 K, x1 = 1	1.4166
317.23 K, x1 = 0.699	1.4113
317.35 K, x1 = 0.803	1.4134
317.36 K, x1 = 0.991	1.4149
317.38 K, x1 = 0.398	1.4034
319.13 K, x1 = 0.5	1.4064
319.2 K, x1 = 1	1.416
319.25 K, x1 = 0.699	1.4107
319.26 K, x1 = 0.803	1.4129
319.3 K, x1 = 0.991	1.4144
319.31 K, x1 = 0.398	1.4028
319.63 K, x1 = 0.601	1.4088
320.77 K, x1 = 0.5	1.4059
321.17 K, x1 = 0.1	1.3834
321.28 K, x1 = 0.991	1.4139
321.32 K, x1 = 1	1.4155
321.34 K, x1 = 0.803	1.4124
321.37 K, x1 = 0.2	1.3919
321.38 K, x1 = 0.299	1.3978
321.4 K, x1 = 0.699	1.4102
321.46 K, x1 = 0.398	1.4021
321.58 K, x1 = 0.601	1.4083
322.42 K, x1 = 0.5	1.4054
322.78 K, x1 = 0.299	1.3972
322.79 K, x1 = 0.2	1.3912
322.97 K, x1 = 0.1	1.3826
323.23 K, x1 = 0.991	1.4134
323.3 K, x1 = 1	1.4149
323.32 K, x1 = 0.699	1.4097
323.32 K, x1 = 0.803	1.4118
323.79 K, x1 = 0.601	1.4077
323.84 K, x1 = 0.398	1.4013
324.07 K, x1 = 0.5	1.4049
324.29 K, x1 = 0.2	1.3906
324.29 K, x1 = 0.299	1.3967
324.43 K, x1 = 0.1	1.3819
325 K, x1 = 0.601	1.4073
325.29 K, x1 = 0.991	1.4128
325.3 K, x1 = 0.699	1.4093
325.35 K, x1 = 0.803	1.4113
325.38 K, x1 = 1	1.4143
325.78 K, x1 = 0.398	1.4007
325.81 K, x1 = 0.299	1.3963
325.82 K, x1 = 0.1	1.3814
325.92 K, x1 = 0.5	1.4043
325.95 K, x1 = 0.2	1.39
327.11 K, x1 = 0.699	1.4088
327.12 K, x1 = 0.803	1.4108
327.13 K, x1 = 0.601	1.4066
327.36 K, x1 = 0.2	1.3894
327.4 K, x1 = 0.991	1.4123
327.41 K, x1 = 1	1.4138
327.47 K, x1 = 0.299	1.3957
327.72 K, x1 = 0.398	1.4
327.74 K, x1 = 0.5	1.4037
327.97 K, x1 = 0.1	1.3804
328.85 K, x1 = 0.601	1.4061
329.18 K, x1 = 0.1	1.3797
329.18 K, x1 = 0.2	1.3887
329.26 K, x1 = 0.299	1.3951

CCCCCCCC[n+]1ccn(C)c1.F[P-](F)(F)(F)(F)F [1-octyl-3-methylimidazolium hexafluorophosphate] + CCCO
Settings	refractive index
298.19 K, x1 = 1	1.4215
300.2 K, x1 = 1	1.421
302.19 K, x1 = 1	1.4204
304.2 K, x1 = 1	1.4199
305.17 K, x1 = 0.3	1.4047
305.17 K, x1 = 0.5	1.4114
305.21 K, x1 = 0.6	1.4137
305.22 K, x1 = 0.801	1.4171
305.23 K, x1 = 0.698	1.4154
305.26 K, x1 = 0.899	1.4184
305.27 K, x1 = 0.399	1.4084
306.18 K, x1 = 0.6	1.4134
306.19 K, x1 = 0.5	1.4111
306.2 K, x1 = 0.3	1.4044
306.2 K, x1 = 0.399	1.4081
306.2 K, x1 = 0.801	1.4168
306.22 K, x1 = 1	1.4193
306.23 K, x1 = 0.698	1.4151
306.25 K, x1 = 0.899	1.4181
307.19 K, x1 = 0.3	1.404
307.19 K, x1 = 0.801	1.4165
307.21 K, x1 = 0.399	1.4078
307.21 K, x1 = 0.6	1.4131
307.24 K, x1 = 0.698	1.4148
307.24 K, x1 = 0.899	1.4178
307.29 K, x1 = 0.2	1.3986
307.35 K, x1 = 0.5	1.4108
308.19 K, x1 = 0.5	1.4105
308.2 K, x1 = 0.3	1.4037
308.21 K, x1 = 0.801	1.4162
308.23 K, x1 = 0.899	1.4175
308.24 K, x1 = 0.698	1.4146
308.24 K, x1 = 1	1.4188
308.25 K, x1 = 0.399	1.4075
308.26 K, x1 = 0.2	1.3983
308.27 K, x1 = 0.6	1.4128
308.32 K, x1 = 0.1	1.3904
309.18 K, x1 = 0.399	1.4072
309.19 K, x1 = 0.3	1.4034
309.19 K, x1 = 0.5	1.4102
309.21 K, x1 = 0.6	1.4125
309.21 K, x1 = 0.899	1.4173
309.22 K, x1 = 0.698	1.4143
309.23 K, x1 = 0.1	1.3901
309.23 K, x1 = 0.801	1.416
309.28 K, x1 = 0.2	1.3979
310.11 K, x1 = 0.3	1.4031
310.19 K, x1 = 0.6	1.4122
310.2 K, x1 = 0.5	1.4099
310.21 K, x1 = 0.899	1.417
310.23 K, x1 = 0.1	1.3897
310.23 K, x1 = 0.698	1.414
310.25 K, x1 = 0.801	1.4157
310.25 K, x1 = 1	1.4183
310.26 K, x1 = 0.2	1.3976
310.29 K, x1 = 0.399	1.4069
311.2 K, x1 = 0.6	1.4119
311.2 K, x1 = 0.801	1.4154
311.2 K, x1 = 0.899	1.4167
311.21 K, x1 = 0.3	1.4027
311.21 K, x1 = 0.399	1.4066
311.22 K, x1 = 0.5	1.4096
311.24 K, x1 = 0.1	1.3893
311.25 K, x1 = 0.2	1.3973
311.25 K, x1 = 0.698	1.4138
312.17 K, x1 = 0.3	1.4024
312.17 K, x1 = 0.399	1.4063
312.19 K, x1 = 0.6	1.4116
312.19 K, x1 = 0.698	1.4135
312.2 K, x1 = 0.2	1.397
312.2 K, x1 = 0.5	1.4093
312.2 K, x1 = 0.801	1.4151
312.2 K, x1 = 0.899	1.4164
312.24 K, x1 = 1	1.4178
312.26 K, x1 = 0.1	1.3889
313.24 K, x1 = 0.1	1.3886
313.24 K, x1 = 0.2	1.3966

CC(C)(C)O [2-methylpropan-2-ol] + CCCCCCCC[n+]1ccn(C)c1.F[P-](F)(F)(F)(F)F
x2 = 0
Settings	refractive index
309.16 K	1.3775
312.05 K	1.3759
315.18 K	1.3742
318.15 K	1.3725
321.11 K	1.3708
324.42 K	1.3689

CCCO [propan-1-ol] + CCCCCCCC[n+]1ccn(C)c1.F[P-](F)(F)(F)(F)F
x2 = 0
Settings	refractive index
298.19 K	1.3818
300.2 K	1.381
302.19 K	1.3802
304.2 K	1.3793
306.22 K	1.3785
308.24 K	1.3777
310.25 K	1.3769
312.24 K	1.376
